Results from patent US20080301822A1, “Role of alpha1-adrenergic receptors” (The Cleveland Clinic Foundation, priority 2005, published 2008).

Assays:
[1] = test system: α1A-AR-EGFP positive hippocampal CA1 interneurons; assay: Cell-attached patch recordings of spontaneous action potentials in hippocampal slices; type: cell-based, mouse; details: 6FNE 10 μM
Experimental: Slice Preparation and Cell Identification. Hippocampal brain slices were prepared from α1A-AR-EGFP mice in strict accordance with a protocol approved by the Institutional Animal Care and Use Committee at the University of North Dakota. Mice were deeply anesthetized with isoflurane, sacrificed by decapitation, and their brains rapidly removed and placed in an ice-cold saline solution containing (in mM): 130 NaCl, 24 NaHCO3, 5 KCl, 1.25 NaH2PO4, 0.5 CaCl2, 4 MgCl2 and 10 glucose (saturated with 95% O2-5% CO2). The brain was then sectioned at 250-350 μm thick intervals using a Microm HM 650V vibrating blade microtome (Richard-Allen Scientific, Kalamazoo, Mich.). Slices were incubated at 35° C. for 40 min and then allowed to recover for at least 30 min at room temperature (22±1° C.) before experimentation. Slices were transferred to a PC-H chamber with a coverslip bottom (SD Instruments, Grants Pass, Oreg.) mounted on the fixed stage of an upright microscope (Olympus BX51 WI, Tokyo, Japan) equipped with a filter set for fluorescence imaging of EGFP and IR-DIC optics. Interneurons were visualized using 470 nm and 900 nm light with a water immersion objective (Olympus LUMPlanF1 60×IR) and two CCD cameras (Olympus MagnaFire and Sony XC-75, Tokyo, Japan). Dedicated MagnaFire software and a Hamamatsu C-2400 camera controller (Hamamatsu City, Japan) were used to adjust image quality in GFP and IR-DIC channels, respectively. […]
Electrophysiological Recordings. […] Action potentials (APs) were recorded using an Axopatch 200B amplifier (Axon Instruments, Union City, Calif.) in voltage-clamp mode, filtered at 2 kHz, digitized at 10 kHz (Digidata 1322A; Axon Instruments), and recorded to disk using pClamp9.0 software (Axon Instruments). […] Data were analyzed offline using Origin (OriginLab Corp., Northampton, Mass.) and Mini analysis 6.0.1 (Synaptosoft Inc., Decatur, Ga.). Each detected event was inspected visually to exclude obvious false action potentials (AP) before analysis. […] Statistical significance (p<0.05) was determined using the paired Student's t test, and mean values are expressed ±SEM.

[2] = test system: pyramidal cells; assay: Action potential generation in pyramidal cells (unpublished data); type: cell-based
[3] = target: α1-ARs; assay: Saturation ligand binding on neurosphere membranes; design: species or system mouse; details: normal embryonic and neonatal neurospheres, FIG. 19A
Experimental: Ligand Binding. Membranes were prepared and ligand binding was performed as previously described (Rorabaugh et al., Cardiovas. Res., 65:436-445 (2005)). Saturation or competition binding used the nonselective i-AR antagonist, 2-[β-(4-hydroxyl-3-^125I-iodophenyl)ethylaminomethyl]-tetralone (^125I-HEAT) or ^125I-CYP as the radioligand, using either increasing concentration of the radiolabel or using a KD amount (100 pM) to label total α1-ARs and increasing concentrations of an non-labeled selective antagonist. Non-specific labeling was determined by adding 100 uM phentolamine (or α1-ARs) or 1 uM propranolol (for β-ARs). Bmax and KD were determined through the use of Graphpad Prism. Statistical analysis of the binding data used a one-way ANOVA followed by a Newman-Keul's post-test where p<0.05 was considered significant.

[4] = test system: α1A-AR mediated increased Ngn2 expression in normal neonatal neurospheres; assay: Real time PCR of α1A-AR induced Ngn2 expression with signaling inhibitors; type: cell-based, mouse; details: one day phenylephrine treated normal neonatal neurospheres; FIG. 27
Experimental: (§1) Real Time PCR. Neurospheres were grown in proliferation or differentiation medium for 1, 3, 7 and 10 days respectively. The neurospheres grown in the proliferation medium were treated with phenlyephrine for the above-mentioned time along with Rauwalscine (0.1 uM) and Propranolol (1 uM). Total RNA was isolated using the RNAesy kit (Quiagen) and 2 ug RNA was reverse transcribed using oligodT primers with Superscript II Reverse Transcriptase (Invitrogen). Quantitative real time PCR was performed in iCycler (Biorad) using iQ SYBR Green Supermix. (Bio-Rad) The cDNA was amplified with primers for various neural stem cell proliferation and differentiation genes like Notch-1, Nestin, Mash-1, NeuroD, Math-1, Mash-1, Ngn-1, Ngn-2, D1x-2, Sox-2 and Zic-1. Samples obtained from three independent experiments were used for analysis of relative gene expression using the 2(-Delta Delta C(T) Method (Livak, K J and Schmittgen, T D, Methods 25:402-408 (2001)) and were normalized to α-Tubulin gene expression as internal control.
Since Ngn2 mRNA expression, a major gene of neuronal differentiation, appears to be regulated by the α1A-ARs, the common a i-AR signals responsible for this gene regulation was determined. Real time PCR and inhibitors for PKC (GO6983), PI3K (LY294002), MEK (PD98059) and p38 (SB202190) were used on one day phenylephrine treated normal neonatal neurospheres. The α1A-AR mediated increased Ngn2 expression was blocked by PKC, PI3K and MEK (ERK) inhibition but not by the p38 inhibitor (FIG. 27).

[5] = test system: normal mouse neurospheres; assay: Neurosphere differentiation with phenylephrine in proliferation media (+EGF/FGF), immunostaining for MAP2, GFAP, NG2; type: cell-based; details: phenylephrine 10 uM, 3-10 days
Experimental: (§2) Neurosphere Isolation Periventricular tissue from 1-2 day old pups was removed into HEPES-buffered Eagles' medium. The tissue was diced and incubated with Mg/Ca-free HBSS containing EDTA, trypsin, and DNase. The tissue was washed, centrifuged, and the pellet was triturated in PBS to produce a single-cell suspension and was passed through a 70 um cell strainer. The cells were cultured in B27 media containing heparin, bFGF and EGF until neurosphere development. Neurospheres were dissociated and replated several passages. A single neurosphere was picked, mechanically dissociated, and cloned by dilution.
Differentiation Assay: […] supplement (stem cell technologies) for embryonic neurospheres or in B-27 medium with 2% serum (for neonatal neurospheres) after dissociating them with the chemical dissociation kit (Stem Cell Technologies). The cells were plated at the density of 2×10^5 cells in 12 well plates and treated with Phenylephrine (10 uM).

[6] = test system: CAM α1A-AR neurospheres; assay: Neurosphere differentiation with phenylephrine, CAM α1A-AR neurospheres; type: cell-based, mouse; details: day 10, FIG. 22B
Experimental: (§3) Differentiation Assay: The neurospheres were differentiated by withdrawing the growth factors either in the differentiation supplement (stem cell technologies) for embryonic neurospheres or in B-27 medium with 2% serum (for neonatal neurospheres) after dissociating them with the chemical dissociation kit (Stem Cell Technologies). The cells were plated at the density of 2×10^5 cells in 12 well plates and treated with Phenylephrine (10 uM).

[7] = test system: α1A-KO neonatal neurospheres; assay: Neurosphere differentiation with phenylephrine, α1A-KO neurospheres; type: cell-based, mouse; details: 10 days, FIG. 23B
Experimental: as §2, §3

[8] = test system: normal embryonic mouse neurospheres; assay: Differentiation rates (number of live cells) in differentiation media (−EGF/FGF); type: cell-based; details: FIG. 16
Experimental: Differentiation rates (number of live cells) were also measured in normal neurospheres using differentiation media (−EGF/FGF) with and without phenylephrine.
as §3

[9] = test system: normal neonatal neurospheres; assay: Real time PCR of neurogenic genes after phenylephrine stimulation; type: cell-based, mouse; details: FIG. 26
Experimental: as §1

Cl.NCC(O)c1cc(O)c(O)cc1F (centres unmarked) [6FNE, 6-fluoronorepinephrine (6FNE) hydrochloride] was tested, and the “effect on AP frequency over control conditions” value ([1]; FIG. 6D, fully reversible with wash) was “large increase in AP frequency”, the “frequency of spontaneous action potential discharge, range” value ([1]; n=4, control range 0-0.7 Hz) was 1.8-6.5 Hz and the “frequency of spontaneous action potential discharge, mean” value ([1]; n=4, mean ±SEM, control 0.3±0.1 Hz, 22±1° C.) was 3.5±1.1 Hz. For the same compound, the “action potential generation in pyramidal cells” value [2] was “inhibits action potential generation”.
Work on O=C1c2ccccc2CCC1CNCCc1ccc(O)c([125I])c1 (stereo not drawn) [125I-HEAT, 2-[β-(4-hydroxyl-3-^125I-iodophenyl)ethylaminomethyl]-tetralone] yielded a Kd [3] of 0.176 nM.
In the case of COc1ccc2c(c1)c(C1=C(c3c[nH]c4ccccc34)C(=O)NC1=O)cn2CCCN(C)C [GO6983], the “block of α1A-AR mediated increased Ngn2 expression” value [4] is reported as “blocked”.
For COc1cccc(-c2cc(=O)c3ccccc3o2)c1N [PD98059], the “block of α1A-AR mediated increased Ngn2 expression” value [4] was “blocked”.
In the case of CNC[C@H](O)c1cccc(O)c1 [Phenylephrine], the “differentiation of normal neurospheres in proliferation medium (+EGF/FGF)” value [5] is reported as “caused the differentiation of the neurospheres”, the “differentiation of normal neurospheres in proliferation medium (+EGF/FGF)” value ([5]; listed as Phe) is reported as “induced differentiation into all three cell types” and the “effect on CAM α1A-AR neurospheres (differentiation)” value [6] is reported as “very little effect”. The “effect on α1A-KO neurospheres (differentiation)” value [7] was “increased formation of neurons”, the “differentiation of neurospheres (number of live cells)” value ([8]; differentiation media (−EGF/FGF)) was “enhances differentiation of neurospheres” and the “increase of α1A-AR mRNA expression” value [9] was “two hundred-fold”. For the same compound, the “increase of α1B-AR mRNA expression” value [9] was 10 fold and the “mRNA expression of genes involved in neurogenesis and neuronal differentiation” value ([9]; normal neonatal neurospheres) was “induced increased mRNA expression”.
In the case of Oc1ccc(-c2nc(-c3ccncc3)c(-c3ccc(F)cc3)[nH]2)cc1 [SB202190], the “block of α1A-AR mediated increased Ngn2 expression” value [4] is reported as “not”.
With COc1cc2nc(N3CCN(C(=O)c4ccco4)CC3)nc(N)c2cc1OC [prazosin] the “block of the phenylephrine enhancement of neurosphere differentiation” value ([8]; differentiation media (−EGF/FGF) + phenylephrine) was “can be blocked”.
